According to paper PMC4457802 (PLoS ONE, 2015):
In brackets after ≈: the same amount, converted by molar mass. Like-named read-outs stand apart in the source and are kept apart here. Positions of bridges follow the written chain, without caps; N, C: chain ends. Residues, ends and D or L forms follow the SMILES beside them.

Legend:
human erythrocytes = assay: Hemolytic activity assay; type: cell-based; details: 250μg/ml; 4% human RBCs in PBS, 1hr, 37°C, absorbance 560 nm, relative to 0.1% Triton X-100, triplicate
Method: The hemolytic activity of the peptides was tested using human erythrocytes as described previously. Human red blood cells (RBCs) were freshly collected from a healthy donor, washed three times using sterile phosphate buffered saline (PBS) and centrifuged at 2000 rpm for 10 min until the upper solution became clear. RBCs were diluted to a final concentration of 4%, and 100μl of peptides at different concentrations (1.95 to 250μg/ml) were mixed with equivalent volumes of erythrocyte suspensions. After 1hr of incubation at 37°C, the cells were centrifuged at 2000 rpm for 10 min and the absorbance of the supernatants was measured at 560 nm using GloMax Multi Detection System (Promega, USA). PBS and 0.1% Triton X-100 were used as negative and positive controls, respectively. The assay was done in triplicate, and percentage of hemolysis was calculated using the following formula: 100% hemolysis = 100 (Apeptide-APBS) / (Atriton-APBS). We obtained the blood from the Blood Bank of University […] Medical Centre and ethical clearance for this work was approved by the Scientific and Ethical Committee of UMMC (Ethics Committee/IRB Reference No: 321.4). Written informed consent was obtained for each collection.

[1] = test system: S. pneumoniae (30 clinical isolates); type: cell-based, Streptococcus pneumoniae; details: for MIC S. pneumoniae (30 clinical isolates): broth microdilution, CAMHB, 20-24hr, 37°C, 5% CO2, lowest concentration that completely inhibits growth
Description: (§1) Thirty (30) Pneumococcal clinical isolates were obtained from University of Malaya Medical Centre (UMMC). For broad-spectrum activity of AMPs, E. coli ATCC 25922, Staphylococcus aureus ATCC 25923, P. aeruginosa ATCC 15442, Acinetobacter baumanii ATCC 15308, and one clinical isolate of each methicillin resistant S. aureus (MRSA), […], citrobacter spp., and K. pneumoniae were used in this study.
(§2) The minimum inhibitory concentration (MIC) of the peptides against 30 pneumococcal isolates was determined by broth microdilution protocol as indicated by the CLSI guidelines (Clinical and Laboratory Standards Institute). Briefly, bacterial strains were grown for 18–24 hr at 37°C under 5% CO2. Direct suspension of the colonies were made in cationically-adjusted Müeller-Hinton broth (CAMHB) and adjusted to OD 625 0.08–0.1 which corresponds to 1 ~ 2 x10^8 CFU/ml followed by serial ten-fold dilutions to give 1x10^6 CFU/ml. 50μl of bacterial suspension were added to 96-well round bottom microtiter plates containing equal volume of peptides at different concentrations (1.95, 3.90, 7.81, 15.62, 31.25, 62.5, 125, 250μg/ml) and the 96-well plates were incubated for 20-24hr at 37°C in the presence of 5% CO2.

E. coli ATCC 25922 = type: cell-based
Description: as §1, §2

Enterococcus cloacae = type: cell-based
Description: as §1, §2

[2] = test system: Acinetobacter baumanii ATCC 15308; type: cell-based
Description: as §1, §2

K. pneumoniae = type: cell-based
Description: as §1, §2

[3] = test system: Methicillin resistant S. aureus (MRSA); type: cell-based
Description: as §1, §2

citrobacter spp = type: cell-based
Description: as §1, §2

P. aeruginosa ATCC 15442 = type: cell-based
Description: as §1, §2

Streptococcus pneumoniae = assay: Time killing assay; type: cell-based; details: 1×MIC, MHB, 37°C, sampled every 30 min to 240 min, triplicate
Method: The bactericidal activities of peptides were performed as described previously. […] 10μl of bacterial suspensions were removed at various time intervals (30, 60, 90, 120, 150, 180, 210, and 240 min), serially diluted in PBS and plated onto Columbia agar with 5% sheep blood for 20-24hr at 37°C in the presence of 5% CO2 to obtain viable colonies. Erythromycin and ceftriaxone were used as positive control and the assay was performed in triplicate.

[4] = test system: WRL-68 normal liver cell line; type: cell-based, human
Method: (§3) CellTiter 96 AQueous Non-Radioactive Cell Proliferation assay (Promega, USA) was used to evaluate the cytotoxic effects of peptides. WRL-68 (ATCC CL-48) and NL-20 (ATCC CRL2503) cell lines were purchased from American Type Culture Collection (ATCC, USA). The cell lines were grown in Dulbecco's modified Eagle's medium (DMEM) and Ham’s F-12 medium, respectively. Cells were supplemented with 10% (v/v) fetal bovine serum (FBS) in T75 flasks and incubated at 37°C in the presence of 5% CO2. Cells were seeded into 96-well plates at a density of 1×10^4 and 3×10^4 cells per well, respectively. Peptides were added to the wells at different concentrations (1.95, 3.90, 7.81, 15.62, 31.25, 62.5, 125, and 250μg) and plates were incubated at 37°C under 5% CO2 for 24, 48, and 72 hrs. Medium with and without cells was used as positive and negative controls, respectively. After incubation, 20μl of the reagent were added to each well and incubated for 1 hr at 37°C under 5% CO2. Metabolically active cells convert the yellow MTS to purple formazan, allowing for monitoring of the reaction. The absorbance was monitored at 490 nm using GloMax Multi Detection System (Promega, USA). The percentage of viable cells was calculated according to the following formula: 100 (AT-AB/AC-AB), where AT and AC are the absorbance of treated and control cells (100% survival). AB is the absorbance of medium alone. The assay was done in triplicate.

[5] = test system: NL-20 normal lung cell line; type: cell-based, human
Method: as §3

S. aureus ATCC 25923 = type: cell-based, Staphylococcus aureus
Description: as §1, §2

S. aureus = details: cited from earlier work
E. coli = details: cited from earlier work
[6] = numbers in parentheses are micromolar concentrations, unit of the source corrected
[7] = numbers in parentheses are micromolar concentrations

CC[C@H](C)[C@H](N)C(=O)N[C@@H](CC(C)C)C(=O)N1CCC[C@H]1C(=O)N[C@@H](Cc1c[nH]c2ccccc12)C(=O)N[C@@H](CCCCN)C(=O)N[C@@H](Cc1c[nH]c2ccccc12)C(=O)N1CCC[C@H]1C(=O)N[C@@H](Cc1c[nH]c2ccccc12)C(=O)N[C@@H](Cc1c[nH]c2ccccc12)C(=O)N1CCC[C@H]1C(=O)N[C@@H](Cc1c[nH]c2ccccc12)C(=O)N[C@@H](CCCNC(=N)N)C(=O)N[C@@H](CCCNC(=N)N)C(N)=O [Indolicidin, reference compound]
hemolytic activity (human erythrocytes): 56.98%
MIC S. pneumoniae (30 clinical isolates), in parentheses [1, 6]: 15.6 to 31.2 µg/mL (≈ 8.19 to 16.4 µM)
MIC E. coli ATCC 25922, in parentheses (E. coli ATCC 25922; [6]): 31.2 µg/mL (≈ 16.4 µM)
MIC Enterococcus cloacae, in parentheses (Enterococcus cloacae; [7]): >250 (>131) micromolar
MIC Acinetobacter baumanii ATCC 15308, in parentheses [2, 7]: >250 (131) micromolar
MIC K. pneumoniae, in parentheses (K. pneumoniae; [7]): >250 (>131) micromolar
MIC MRSA, in parentheses [3, 6]: 31.2 µg/mL (≈ 16.4 µM)
MIC citrobacter spp, in parentheses (citrobacter spp; [7]): >250 (>131) micromolar
MIC P. aeruginosa ATCC 15442, in parentheses (P. aeruginosa ATCC 15442; [6]): 31.2 µg/mL (≈ 16.4 µM)

FLGGLIKWWPWRR-NH2 [RN7-IN6, hybrid peptide of ranalexin and indolicidin]
MIC S. pneumoniae (30 clinical isolates) [1]: 7.81 to 15.62 µg/mL
MIC S. pneumoniae (30 clinical isolates), in parentheses [1, 6]: 7.81 to 15.6 µg/mL
time to completely kill 10^6 CFU/ml of S. pneumoniae (Streptococcus pneumoniae): 240 min
concentration at which toxic, WRL-68 [4]: ≥ 62.5 µg/mL
concentration at which toxic, NL-20 [5]: ≥ 125 µg/mL
MIC E. coli ATCC 25922, in parentheses (E. coli ATCC 25922; [6]): 7.81 µg/mL
MIC Enterococcus cloacae, in parentheses (Enterococcus cloacae; [7]): >250 (>145.84) micromolar
MIC Acinetobacter baumanii ATCC 15308, in parentheses [2, 7]: 31.25 (18.23) micromolar
MIC K. pneumoniae, in parentheses (K. pneumoniae; [7]): >250 (>145.84) micromolar
MIC MRSA, in parentheses [3, 6]: 7.81 µg/mL
MIC citrobacter spp, in parentheses (citrobacter spp; [7]): >250 (>145.84) micromolar
MIC P. aeruginosa ATCC 15442, in parentheses (P. aeruginosa ATCC 15442; [6]): 31.2 µg/mL
MIC S. aureus ATCC 25923, in parentheses (S. aureus ATCC 25923; [6]): 7.81 µg/mL

CC[C@H](C)[C@H](NC(=O)[C@H](CCSC)NC(=O)[C@H](C)NC(=O)[C@@H]1CCCN1C(=O)[C@@H](NC(=O)[C@@H](NC(=O)[C@H](CCCCN)NC(=O)[C@@H](NC(=O)[C@H](CC(C)C)NC(=O)CNC(=O)CNC(=O)[C@H](CC(C)C)NC(=O)[C@@H](N)Cc1ccccc1)[C@@H](C)CC)[C@@H](C)CC)C(C)C)C(=O)N[C@H]1CSSC[C@@H](C(=O)O)NC(=O)[C@H](CCCCN)NC(=O)[C@H](CCCCN)NC(=O)[C@H]([C@@H](C)O)NC(=O)[C@H](C(C)C)NC(=O)[C@H](C)NC1=O [Ranalexin, reference compound] (H-FLGGLIKIVPAMICAVTKKC-OH; disulfide 14-20; N-terminus assumed)
MIC S. pneumoniae (30 clinical isolates), in parentheses ([1]; 30 clinical isolates): 62.5 µg/mL (≈ 29.7 µM)
MIC against S. aureus (S. aureus): 4 µg/mL (≈ 1.9 µM)
MIC E. coli ATCC 25922, in parentheses (E. coli ATCC 25922; ATCC 25922): 62.5 µg/mL (≈ 29.7 µM)
MIC Enterococcus cloacae, in parentheses (Enterococcus cloacae): >250 (>118) micromolar
MIC Acinetobacter baumanii ATCC 15308, in parentheses ([2]; ATCC 15308): >250 (>118) micromolar
MIC K. pneumoniae, in parentheses (K. pneumoniae): >250 (>118) micromolar
MIC MRSA, in parentheses ([3]; Methicillin resistant): 31.2 µg/mL (≈ 14.9 µM)
MIC citrobacter spp, in parentheses (citrobacter spp): >250 (>118) micromolar
MIC P. aeruginosa ATCC 15442, in parentheses (P. aeruginosa ATCC 15442; ATCC 15442): 125 µg/mL (≈ 59.4 µM)
MIC S. aureus ATCC 25923, in parentheses (S. aureus ATCC 25923; ATCC 25923): 31.2 µg/mL (≈ 14.9 µM)
MIC against E. coli (E. coli): 32 µg/mL (≈ 15.2 µM)

FLGGLIKKWPWWPWRR-NH2 [RN7-IN9, hybrid peptide of ranalexin and indolicidin]
MIC S. pneumoniae (30 clinical isolates) [1]: 7.81 to 15.62 µg/mL
MIC S. pneumoniae (30 clinical isolates), in parentheses [1, 6]: 7.81 to 15.6 µg/mL
time to completely kill 10^6 CFU/ml of S. pneumoniae (Streptococcus pneumoniae): ≤ 150 min
concentration at which toxic, WRL-68 [4]: ≥ 62.5 µg/mL
concentration at which toxic, NL-20 [5]: ≥ 125 µg/mL
MIC E. coli ATCC 25922, in parentheses (E. coli ATCC 25922; [6]): 7.81 µg/mL
MIC Enterococcus cloacae, in parentheses (Enterococcus cloacae; [7]): >250 (>117) micromolar
MIC Acinetobacter baumanii ATCC 15308, in parentheses [2, 7]: 31.25 (14.7) micromolar
MIC K. pneumoniae, in parentheses (K. pneumoniae; [7]): >250 (>117) micromolar
MIC MRSA, in parentheses [3, 6]: 7.81 µg/mL
MIC citrobacter spp, in parentheses (citrobacter spp; [7]): >250 (>117) micromolar
MIC P. aeruginosa ATCC 15442, in parentheses (P. aeruginosa ATCC 15442; [6]): 31.2 µg/mL
MIC S. aureus ATCC 25923, in parentheses (S. aureus ATCC 25923; [6]): 7.81 µg/mL

FLGGLIKWKWPWWPWRR-NH2 [RN7-IN10, hybrid peptide of ranalexin and indolicidin]
MIC S. pneumoniae (30 clinical isolates) [1]: 7.81 to 15.62 µg/mL
MIC S. pneumoniae (30 clinical isolates), in parentheses [1, 6]: 7.81 to 15.6 µg/mL
time to completely kill 10^6 CFU/ml of S. pneumoniae (Streptococcus pneumoniae): 30 min
concentration at which toxic, WRL-68 [4]: ≥ 62.5 µg/mL
concentration at which toxic, NL-20 [5]: ≥ 125 µg/mL
MIC E. coli ATCC 25922, in parentheses (E. coli ATCC 25922; [6]): 7.81 µg/mL
MIC Enterococcus cloacae, in parentheses (Enterococcus cloacae; [7]): >250 (>108) micromolar
MIC Acinetobacter baumanii ATCC 15308, in parentheses [2, 7]: 31.25 (13.51) micromolar
MIC K. pneumoniae, in parentheses (K. pneumoniae; [7]): >250 (>108) micromolar
MIC MRSA, in parentheses [3, 6]: 7.81 µg/mL
MIC citrobacter spp, in parentheses (citrobacter spp; [7]): >250 (>108) micromolar
MIC P. aeruginosa ATCC 15442, in parentheses (P. aeruginosa ATCC 15442; [6]): 31.2 µg/mL
MIC S. aureus ATCC 25923, in parentheses (S. aureus ATCC 25923; [6]): 7.81 µg/mL

FLGGLIKWPWWPWRR-NH2 [RN7-IN8, hybrid peptide of ranalexin and indolicidin]
MIC S. pneumoniae (30 clinical isolates) [1]: 7.81 to 15.62 µg/mL
MIC S. pneumoniae (30 clinical isolates), in parentheses [1, 6]: 7.81 to 15.6 µg/mL
time to completely kill 10^6 CFU/ml of S. pneumoniae (Streptococcus pneumoniae): 120 min
concentration at which toxic, WRL-68 [4]: ≥ 62.5 µg/mL
concentration at which toxic, NL-20 [5]: ≥ 125 µg/mL
MIC E. coli ATCC 25922, in parentheses (E. coli ATCC 25922; [6]): 7.81 µg/mL
MIC Enterococcus cloacae, in parentheses (Enterococcus cloacae; [7]): >250 (>125) micromolar
MIC Acinetobacter baumanii ATCC 15308, in parentheses [2, 7]: 62.5 (31.3) micromolar
MIC K. pneumoniae, in parentheses (K. pneumoniae; [7]): >250 (>125) micromolar
MIC MRSA, in parentheses [3, 6]: 7.81 µg/mL
MIC citrobacter spp, in parentheses (citrobacter spp; [7]): >250 (>125) micromolar
MIC P. aeruginosa ATCC 15442, in parentheses (P. aeruginosa ATCC 15442; [6]): 31.2 µg/mL
MIC S. aureus ATCC 25923, in parentheses (S. aureus ATCC 25923; [6]): 7.81 µg/mL
